Assay results reported in ChEMBL document CHEMBL1147101, “Development and persistence of antimicrobial resistance in Pseudomonas aeruginosa: a longitudinal observation in mechanically ventilated patients” (Antimicrob Agents Chemother, 2007).
The source made the active and inactive calls. The rule behind the calls is not given here.

Columns and labels:
Type in all cases: functional, organism-based
Conditions in all cases: Trachea
Pseudomonas aeruginosa [1] = experiment: Antimicrobial activity against Pseudomonas aeruginosa 1A9 tracheal isolates from mechanically ventilated tuberculosis patient
Pseudomonas aeruginosa [2] = experiment: Antimicrobial activity against Pseudomonas aeruginosa 19E9 tracheal isolates from mechanically ventilated chronic respiratory insufficiency patient
Pseudomonas aeruginosa [3] = experiment: Antimicrobial activity against Pseudomonas aeruginosa 65.38-3 tracheal isolates from mechanically ventilated tuberculosis patient
Pseudomonas aeruginosa [4] = experiment: Antimicrobial activity against Pseudomonas aeruginosa 24G1 tracheal isolates from mechanically ventilated chronic respiratory insufficiency patient
Pseudomonas aeruginosa [5] = experiment: Antimicrobial activity against Pseudomonas aeruginosa 19E2 tracheal isolates from mechanically ventilated chronic respiratory insufficiency patient
Pseudomonas aeruginosa [6] = experiment: Antimicrobial activity against Pseudomonas aeruginosa 22D9 tracheal isolates from mechanically ventilated chronic respiratory insufficiency patient
Pseudomonas aeruginosa [7] = experiment: Antimicrobial activity against Pseudomonas aeruginosa 5G3 tracheal isolates from mechanically ventilated chronic respiratory insufficiency patient
Pseudomonas aeruginosa [8] = experiment: Antimicrobial activity against Pseudomonas aeruginosa 65.36-3 tracheal isolates from mechanically ventilated tuberculosis patient
Pseudomonas aeruginosa [9] = experiment: Antimicrobial activity against Pseudomonas aeruginosa 65.68-1 tracheal isolates from mechanically ventilated tuberculosis patient
Pseudomonas aeruginosa [10] = experiment: Antimicrobial activity against Pseudomonas aeruginosa 65.33-4 tracheal isolates from mechanically ventilated tuberculosis patient
Pseudomonas aeruginosa [11] = experiment: Antimicrobial activity against Pseudomonas aeruginosa 2A2 tracheal isolates from mechanically ventilated tuberculosis patient
Pseudomonas aeruginosa [12] = experiment: Antimicrobial activity against Pseudomonas aeruginosa 10A6 tracheal isolates from mechanically ventilated chronic respiratory insufficiency patient
Pseudomonas aeruginosa [13] = experiment: Antimicrobial activity against Pseudomonas aeruginosa P21.23 tracheal isolates from mechanically ventilated tuberculosis patient
Pseudomonas aeruginosa [14] = experiment: Antimicrobial activity against Pseudomonas aeruginosa 22E3 tracheal isolates from mechanically ventilated chronic respiratory insufficiency patient
Pseudomonas aeruginosa [15] = experiment: Antimicrobial activity against Pseudomonas aeruginosa 3D1 tracheal isolates from mechanically ventilated chronic respiratory insufficiency patient
Pseudomonas aeruginosa [16] = experiment: Antimicrobial activity against Pseudomonas aeruginosa 3B1 tracheal isolates from mechanically ventilated tuberculosis patient
Pseudomonas aeruginosa [17] = experiment: Antimicrobial activity against Pseudomonas aeruginosa 9A10 tracheal isolates from mechanically ventilated chronic respiratory insufficiency patient
Pseudomonas aeruginosa [18] = experiment: Antimicrobial activity against Pseudomonas aeruginosa 5F8 tracheal isolates from mechanically ventilated chronic respiratory insufficiency patient
Pseudomonas aeruginosa [19] = experiment: Antimicrobial activity against Pseudomonas aeruginosa 8A12 tracheal isolates from mechanically ventilated chronic respiratory insufficiency patient
Pseudomonas aeruginosa [20] = experiment: Antimicrobial activity against Pseudomonas aeruginosa 16D5 tracheal isolates from mechanically ventilated chronic respiratory insufficiency patient
Pseudomonas aeruginosa [21] = experiment: Antimicrobial activity against Pseudomonas aeruginosa 65.36-1 tracheal isolates from mechanically ventilated tuberculosis patient
Pseudomonas aeruginosa [22] = experiment: Antimicrobial activity against Pseudomonas aeruginosa 65.38-1 tracheal isolates from mechanically ventilated tuberculosis patient
Pseudomonas aeruginosa [23] = experiment: Antimicrobial activity against Pseudomonas aeruginosa 9A7 tracheal isolates from mechanically ventilated chronic respiratory insufficiency patient
Pseudomonas aeruginosa [24] = experiment: Antimicrobial activity against Pseudomonas aeruginosa P21.21 tracheal isolates from mechanically ventilated tuberculosis patient
Pseudomonas aeruginosa [25] = experiment: Antimicrobial activity against Pseudomonas aeruginosa 13E1 tracheal isolates from mechanically ventilated chronic respiratory insufficiency patient
Pseudomonas aeruginosa [26] = experiment: Antimicrobial activity against Pseudomonas aeruginosa 65.36-4 tracheal isolates from mechanically ventilated tuberculosis patient
Pseudomonas aeruginosa [27] = experiment: Antimicrobial activity against Pseudomonas aeruginosa 22D2 tracheal isolates from mechanically ventilated chronic respiratory insufficiency patient
Pseudomonas aeruginosa [28] = experiment: Antimicrobial activity against Pseudomonas aeruginosa 22E1 tracheal isolates from mechanically ventilated chronic respiratory insufficiency patient
Pseudomonas aeruginosa [29] = experiment: Antimicrobial activity against Pseudomonas aeruginosa 2C2 tracheal isolates from mechanically ventilated tuberculosis patient
Pseudomonas aeruginosa [30] = experiment: Antimicrobial activity against Pseudomonas aeruginosa 10B3 tracheal isolates from mechanically ventilated chronic respiratory insufficiency patient
Pseudomonas aeruginosa [31] = experiment: Antimicrobial activity against Pseudomonas aeruginosa 19B6 tracheal isolates from mechanically ventilated chronic respiratory insufficiency patient
Pseudomonas aeruginosa [32] = experiment: Antimicrobial activity against Pseudomonas aeruginosa 2C1 tracheal isolates from mechanically ventilated tuberculosis patient
Pseudomonas aeruginosa [33] = experiment: Antimicrobial activity against Pseudomonas aeruginosa 9B5 tracheal isolates from mechanically ventilated chronic respiratory insufficiency patient
Pseudomonas aeruginosa [34] = experiment: Antimicrobial activity against Pseudomonas aeruginosa 2A9 tracheal isolates from mechanically ventilated tuberculosis patient
Pseudomonas aeruginosa [35] = experiment: Antimicrobial activity against Pseudomonas aeruginosa 2A3 tracheal isolates from mechanically ventilated tuberculosis patient
Pseudomonas aeruginosa [36] = experiment: Antimicrobial activity against Pseudomonas aeruginosa 5F2 tracheal isolates from mechanically ventilated chronic respiratory insufficiency patient
Pseudomonas aeruginosa [37] = experiment: Antimicrobial activity against Pseudomonas aeruginosa 2F6 tracheal isolates from mechanically ventilated tuberculosis patient
Pseudomonas aeruginosa [38] = experiment: Antimicrobial activity against Pseudomonas aeruginosa 65.68-2 tracheal isolates from mechanically ventilated tuberculosis patient
Pseudomonas aeruginosa [39] = experiment: Antimicrobial activity against Pseudomonas aeruginosa 8B11 tracheal isolates from mechanically ventilated chronic respiratory insufficiency patient
Pseudomonas aeruginosa [40] = experiment: Antimicrobial activity against Pseudomonas aeruginosa 12A7 tracheal isolates from mechanically ventilated chronic respiratory insufficiency patient
Pseudomonas aeruginosa [41] = experiment: Antimicrobial activity against Pseudomonas aeruginosa 10B1 tracheal isolates from mechanically ventilated chronic respiratory insufficiency patient
Pseudomonas aeruginosa [42] = experiment: Antimicrobial activity against Pseudomonas aeruginosa 12A3 tracheal isolates from mechanically ventilated chronic respiratory insufficiency patient
Pseudomonas aeruginosa [43] = experiment: Antimicrobial activity against Pseudomonas aeruginosa 65.33-1 tracheal isolates from mechanically ventilated tuberculosis patient
Pseudomonas aeruginosa [44] = experiment: Antimicrobial activity against Pseudomonas aeruginosa 9A1 tracheal isolates from mechanically ventilated chronic respiratory insufficiency patient
Pseudomonas aeruginosa [45] = experiment: Antimicrobial activity against Pseudomonas aeruginosa 15G2 tracheal isolates from mechanically ventilated chronic respiratory insufficiency patient
Pseudomonas aeruginosa [46] = experiment: Antimicrobial activity against Pseudomonas aeruginosa 19C7 tracheal isolates from mechanically ventilated chronic respiratory insufficiency patient
Pseudomonas aeruginosa [47] = experiment: Antimicrobial activity against Pseudomonas aeruginosa 22D6 tracheal isolates from mechanically ventilated chronic respiratory insufficiency patient
Pseudomonas aeruginosa [48] = experiment: Antimicrobial activity against Pseudomonas aeruginosa 3E2 tracheal isolates from mechanically ventilated chronic respiratory insufficiency patient
Pseudomonas aeruginosa [49] = experiment: Antimicrobial activity against Pseudomonas aeruginosa 2A7 tracheal isolates from mechanically ventilated tuberculosis patient
Pseudomonas aeruginosa [50] = experiment: Antimicrobial activity against Pseudomonas aeruginosa 8A2 tracheal isolates from mechanically ventilated chronic respiratory insufficiency patient
Pseudomonas aeruginosa [51] = experiment: Antimicrobial activity against Pseudomonas aeruginosa 22C5 tracheal isolates from mechanically ventilated chronic respiratory insufficiency patient
Pseudomonas aeruginosa [52] = experiment: Antimicrobial activity against Pseudomonas aeruginosa 3D10 tracheal isolates from mechanically ventilated chronic respiratory insufficiency patient
Pseudomonas aeruginosa [53] = experiment: Antimicrobial activity against Pseudomonas aeruginosa 9B2 tracheal isolates from mechanically ventilated chronic respiratory insufficiency patient
Pseudomonas aeruginosa [54] = experiment: Antimicrobial activity against Pseudomonas aeruginosa 24E5 tracheal isolates from mechanically ventilated chronic respiratory insufficiency patient
Pseudomonas aeruginosa [55] = experiment: Antimicrobial activity against Pseudomonas aeruginosa 19D9 tracheal isolates from mechanically ventilated chronic respiratory insufficiency patient
Pseudomonas aeruginosa [56] = experiment: Antimicrobial activity against Pseudomonas aeruginosa 65.68-3 tracheal isolates from mechanically ventilated tuberculosis patient
Pseudomonas aeruginosa [57] = experiment: Antimicrobial activity against Pseudomonas aeruginosa 29F6 tracheal isolates from mechanically ventilated chronic respiratory insufficiency patient
Pseudomonas aeruginosa [58] = experiment: Antimicrobial activity against Pseudomonas aeruginosa 13D11 tracheal isolates from mechanically ventilated chronic respiratory insufficiency patient
Pseudomonas aeruginosa [59] = experiment: Antimicrobial activity against Pseudomonas aeruginosa 12B2 tracheal isolates from mechanically ventilated chronic respiratory insufficiency patient

With `CC(C)(O/N=C(\C(=O)N[C@@H]1C(=O)N2C(C(=O)[O-])=C(C[n+]3ccccc3)CS[C@H]12)c1csc(N)n1)C(=O)O` the Activity (Pseudomonas aeruginosa [1]) was “inactive”, the Activity (Pseudomonas aeruginosa [2]) was “Active” and the Activity (Pseudomonas aeruginosa [3]) was “inactive”. The Activity (Pseudomonas aeruginosa [4]) was “Active”, the Activity (Pseudomonas aeruginosa [5]) was “Active” and the Activity (Pseudomonas aeruginosa [6]) was “Active”. The Activity (Pseudomonas aeruginosa [7]) was “Active”, the Activity (Pseudomonas aeruginosa [8]) was “Active” and the Activity (Pseudomonas aeruginosa [9]) was “Active”. The Activity (Pseudomonas aeruginosa [10]) was “Active”, the Activity (Pseudomonas aeruginosa [11]) was “Active” and the Activity (Pseudomonas aeruginosa [12]) was “Active”. For the same compound, the Activity (Pseudomonas aeruginosa [13]) was “Active”, the Activity (Pseudomonas aeruginosa [14]) was “Active” and the Activity (Pseudomonas aeruginosa [15]) was “Active”. For the same compound, the Activity (Pseudomonas aeruginosa [16]) was “Active”, the Activity (Pseudomonas aeruginosa [17]) was “Active” and the Activity (Pseudomonas aeruginosa [18]) was “Active”. The Activity (Pseudomonas aeruginosa [19]) was “Active”, the Activity (Pseudomonas aeruginosa [20]) was “Active” and the Activity (Pseudomonas aeruginosa [21]) was “Active”. The Activity (Pseudomonas aeruginosa [22]) was “inactive”, the Activity (Pseudomonas aeruginosa [23]) was “Active” and the Activity (Pseudomonas aeruginosa [24]) was “Active”. For the same compound, the Activity (Pseudomonas aeruginosa [25]) was “Active”, the Activity (Pseudomonas aeruginosa [26]) was “inactive” and the Activity (Pseudomonas aeruginosa [27]) was “Active”. For the same compound, the Activity (Pseudomonas aeruginosa [28]) was “Active”, the Activity (Pseudomonas aeruginosa [29]) was “Active” and the Activity (Pseudomonas aeruginosa [30]) was “Active”. The Activity (Pseudomonas aeruginosa [31]) was “Active”, the Activity (Pseudomonas aeruginosa [32]) was “inactive” and the Activity (Pseudomonas aeruginosa [33]) was “Active”. For the same compound, the Activity (Pseudomonas aeruginosa [34]) was “inactive”, the Activity (Pseudomonas aeruginosa [35]) was “Active” and the Activity (Pseudomonas aeruginosa [36]) was “Active”. For the same compound, the Activity (Pseudomonas aeruginosa [37]) was “inactive”, the Activity (Pseudomonas aeruginosa [38]) was “Active” and the Activity (Pseudomonas aeruginosa [39]) was “Active”. The Activity (Pseudomonas aeruginosa [40]) was “Active”, the Activity (Pseudomonas aeruginosa [41]) was “Active” and the Activity (Pseudomonas aeruginosa [42]) was “Active”. The Activity (Pseudomonas aeruginosa [43]) was “Active”, the Activity (Pseudomonas aeruginosa [44]) was “Active” and the Activity (Pseudomonas aeruginosa [45]) was “Active”. For the same compound, the Activity (Pseudomonas aeruginosa [46]) was “Active”, the Activity (Pseudomonas aeruginosa [47]) was “Active” and the Activity (Pseudomonas aeruginosa [48]) was “Active”. For the same compound, the Activity (Pseudomonas aeruginosa [49]) was “inactive”, the Activity (Pseudomonas aeruginosa [50]) was “Active” and the Activity (Pseudomonas aeruginosa [51]) was “Active”. The Activity (Pseudomonas aeruginosa [52]) was “Active”, the Activity (Pseudomonas aeruginosa [53]) was “Active” and the Activity (Pseudomonas aeruginosa [54]) was “Active”. The Activity (Pseudomonas aeruginosa [55]) was “Active”, the Activity (Pseudomonas aeruginosa [56]) was “Active” and the Activity (Pseudomonas aeruginosa [57]) was “Active”. The Activity (Pseudomonas aeruginosa [58]) was “Active” and the Activity (Pseudomonas aeruginosa [59]) was “Active”.
